Experimental data as given in US11919901B2 (Syndax Pharmaceuticals, Inc., priority 2021, dated 2024).
Where two headings read alike, the source gives them in different places. Values belong to the compound of their own block, whether it stands above or below them.

Tested on: MV4-11 cells
Assay: Cell proliferation assay MV4;11 (CellTiter-Glo, 72 hours)
Type: cell-based
Conditions: Homo sapiens, read-out: MV4
How it was run: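 MV4-11 cells (MLL1-AF4 fusion) exposed 72 h at 37 °C to 8 compound concentrations, final 0.632–2000 nM. Viability by CellTiter-Glo luminescence as % of vehicle RLU; % max inhibition = 100 − viability at top concentration.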

[1] = MV4;11 leukemia cell line, 72 hours, 11 IC50

Structure (SMILES): CCNS(=O)(=O)N[C@@H]1CC[C@@H](CN2CCC3(CC2)CN(c2ncnnc2Oc2ccc(F)cc2C(=O)N(C(C)C)C(C)C)C3)OC1 [Example 198, 2-((5-(7-(((2S,5R)-5-((N-Ethylsulfamoyl)amino)tetrahydro-2H-pyran-2-yl)methyl)-2,7-diazaspiro[3.5]nonan-2-yl)-1,2,4-triazin-6-yl)oxy)-5-fluoro-N,N-diisopropylbenzamide]
- IC50 [1]: < 100 nM

Structure (SMILES): CC(C)N(C(=O)c1cc(F)ccc1Oc1nncnc1N1CC2(CCN(C[C@@H]3CC[C@@H](NS(=O)(=O)N4CCC4)CO3)CC2)C1)C(C)C [Example 199, 2-((5-(7-(((2S,5R)-5-(Azetidine-1-sulfonamido)tetrahydro-2H-pyran-2-yl)methyl)-2,7-diazaspiro[3.5]nonan-2-yl)-1,2,4-triazin-6-yl)oxy)-5-fluoro-N,N-diisopropylbenzamide]
- IC50 [1]: < 100 nM

- IC50 [1]: < 100 nM
Structure (SMILES): C[C@@H]1COC[C@@H](C)N1C(=O)c1cc(F)ccc1Oc1cncnc1N1CC2(CCN(C[C@@H]3CC[C@@H](NS(=O)(=O)N4CCC[C@@H]4C)CO3)CC2)C1 [Example 209, (S)-N-((3R,6S)-6-((2-(5-(2-((3R,5R)-3,5-Dimethylmorpholine-4-carbonyl)-4-fluorophenoxy)pyrimidin-4-yl)-2,7-diazaspiro[3.5]nonan-7-yl)methyl)tetrahydro-2H-pyran-3-yl)-2-methylpyrrolidine-1-sulfonamide]

Structure (SMILES): CC(C)N(CC(F)F)C(=O)c1cc(F)ccc1Oc1cncnc1N1CC2(CCN(C[C@@H]3CC[C@@H](NS(=O)(=O)N(C)CCCO)CO3)CC2)C1 [Example 214, N-(2,2-difluoroethyl)-5-fluoro-2-((4-(7-(((2S,5R)-5-((N-(3-hydroxypropyl)-N-methylsulfamoyl)amino)tetrahydro-2H-pyran-2-yl)methyl)-2,7-diazaspiro[3.5]nonan-2-yl)pyrimidin-5-yl)oxy)-N-isopropylbenzamide]
- IC50 [1]: < 100 nM

- IC50 [1]: 100 to 1000 nM
Structure (SMILES): CCN(C(=O)c1cc(F)ccc1Oc1cncnc1N1CC2(CCN(C[C@@H]3CC[C@@H](NC(=O)Nc4ccccc4)CO3)CC2)C1)C(C)C [Example 215, N-Ethyl-5-fluoro-N-isopropyl-2-((4-(7-(((2S,5R)-5-(3-phenylureido)tetrahydro-2H-pyran-2-yl)methyl)-2,7-diazaspiro[3.5]nonan-2-yl)pyrimidin-5-yl)oxy)benzamide]

Structure (SMILES): CCN(C(=O)c1cc(F)ccc1Oc1cnc(C)nc1N1CC2(CCN(C[C@@H]3CC[C@@H](NS(=O)(=O)CC)CO3)CC2)C1)C(C)C [Example 216, N-Ethyl-2-((4-(7-(((2S,5R)-5-(ethylsulfonamido)tetrahydro-2H-pyran-2-yl)methyl)-2,7-diazaspiro[3.5]nonan-2-yl)-2-methylpyrimidin-5-yl)oxy)-5-fluoro-N-isopropylbenzamide]
- IC50 [1]: 100 to 1000 nM

Structure (SMILES): C=CS(=O)(=O)N[C@@H]1CC[C@@H](CN2CCC3(CC2)CN(c2ncncc2Oc2ccc(F)cc2C(=O)N(CC)C(C)C)C3)OC1 [Example 219, N-Ethyl-5-fluoro-N-isopropyl-2-((4-(7-(((2S,5R)-5-(vinylsulfonamido)tetrahydro-2H-pyran-2-yl)methyl)-2,7-diazaspiro[3.5]nonan-2-yl)pyrimidin-5-yl)oxy)benzamide]
- IC50 [1]: < 100 nM

Structure (SMILES): CCN(C(=O)c1cc(F)ccc1Oc1cncnc1N1CC2(CCN(C[C@@H]3CC[C@@H](NS(=O)(=O)CCN(C)C)CO3)CC2)C1)C(C)C [Example 220, 2-((4-(7-(((2S,5R)-5-((2-(Dimethylamino)ethyl)sulfonamido)tetrahydro-2H-pyran-2-yl)methyl)-2,7-diazaspiro[3.5]nonan-2-yl)pyrimidin-5-yl)oxy)-N-ethyl-5-fluoro-N-isopropylbenzamide]
- IC50 [1]: 100 to 1000 nM

Structure (SMILES): CC(C)N(C(=O)c1cc(F)ccc1Oc1cncnc1N1CC2(CCN(C[C@@H]3CC[C@@H](NS(=O)(=O)N4CC5(CCO5)C4)CO3)CC2)C1)C(C)C [Example 221, 2-((4-(7-(((2S,5R)-5-(1-Oxa-6-azaspiro[3.3]heptane-6-sulfonamido)tetrahydro-2H-pyran-2-yl)methyl)-2,7-diazaspiro[3.5]nonan-2-yl)pyrimidin-5-yl)oxy)-5-fluoro-N,N-diisopropylbenzamide]
- IC50 [1]: < 100 nM

Structure (SMILES): CC(C)N(C(=O)c1cc(F)ccc1Oc1cncnc1N1CC2(CCN(C[C@@H]3CC[C@@H](NS(=O)(=O)N4CC5(COC5)C4)CO3)CC2)C1)C(C)C [Example 222, 2-((4-(7-(((2S,5R)-5-(2-Oxa-6-azaspiro[3.3]heptane-6-sulfonamido)tetrahydro-2H-pyran-2-yl)methyl)-2,7-diazaspiro[3.5]nonan-2-yl)pyrimidin-5-yl)oxy)-5-fluoro-N,N-diisopropylbenzamide]
- IC50 [1]: < 100 nM

Structure (SMILES): CC(C)N(C(=O)c1cc(F)ccc1Oc1cncnc1N1CC2(CCN(C[C@@H]3CC[C@@H](NS(=O)(=O)N4CC5(CCOC5)C4)CO3)CC2)C1)C(C)C [Example 223, 2-((4-(7-(((2S,5R)-5-(6-Oxa-2-azaspiro[3.4]octane-2-sulfonamido)tetrahydro-2H-pyran-2-yl)methyl)-2,7-diazaspiro[3.5]nonan-2-yl)pyrimidin-5-yl)oxy)-5-fluoro-N,N-diisopropylbenzamide]
- IC50 [1]: < 100 nM

Structure (SMILES): CC(C)N(CC(F)F)C(=O)c1cc(F)ccc1Oc1cncnc1N1CC2(CCN(C[C@@H]3CC[C@@H](NS(=O)(=O)NCC(F)F)CO3)CC2)C1 [Example 235, N-(2,2-Difluoroethyl)-2-((4-(7-(((2S,5R)-5-((N-(2,2-difluoroethyl)sulfamoyl)amino)tetrahydro-2H-pyran-2-yl)methyl)-2,7-diazaspiro[3.5]nonan-2-yl)pyrimidin-5-yl)oxy)-5-fluoro-N-isopropylbenzamide]
- IC50 (MV4-11, 72 h, 11 IC50 (nM)): < 100 nM

Structure (SMILES): CC(C)N(CC(F)F)C(=O)c1cc(F)ccc1Oc1cncnc1N1CC2(CCN(C[C@@H]3CC[C@@H](NS(=O)(=O)N(C)CCO)CO3)CC2)C1 [Example 239, N-(2,2-difluoroethyl)-5-fluoro-2-((4-(7-(((2S,5R)-5-((N-(2-hydroxyethyl)-N-methylsulfamoyl)amino)tetrahydro-2H-pyran-2-yl)methyl)-2,7-diazaspiro[3.5]nonan-2-yl)pyrimidin-5-yl)oxy)-N-isopropylbenzamide]
- IC50 [1]: < 100 nM

Structure (SMILES): CC(C)N(CC(F)F)C(=O)c1cc(F)ccc1Oc1cncnc1N1CC2(CCN(C[C@@H]3CC[C@@H](NS(N)(=O)=O)CO3)CC2)C1 [Example 240, N-(2,2-Difluoroethyl)-5-fluoro-N-isopropyl-2-((4-(7-(((2S,5R)-5-(sulfamoylamino)tetrahydro-2H-pyran-2-yl)methyl)-2,7-diazaspiro[3.5]nonan-2-yl)pyrimidin-5-yl)oxy)benzamide]
- IC50 [1]: < 100 nM

Structure (SMILES): CCS(=O)(=O)N[C@@H]1CC[C@@H](CN2CCC3(CC2)CN(c2ncncc2Oc2ccc(F)cc2C(=O)N(CCC(F)F)C(C)C)C3)OC1 [Example 242, N-(3,3-Difluoropropyl)-2-((4-(7-(((2S,5R)-5-(ethylsulfonamido)tetrahydro-2H-pyran-2-yl)methyl)-2,7-diazaspiro[3.5]nonan-2-yl)pyrimidin-5-yl)oxy)-5-fluoro-N-isopropylbenzamide]
- IC50 [1]: < 100 nM

Structure (SMILES): CC(C)N(C(=O)c1cc(F)ccc1Oc1cncnc1N1CC2(CCN(C[C@@H]3CC[C@@H](NS(=O)(=O)C4CC4)CO3)CC2)C1)C1COC1 [Example 247, 2-((4-(7-(((2S,5R)-5-(Cyclopropanesulfonamido)tetrahydro-2H-pyran-2-yl)methyl)-2,7-diazaspiro[3.5]nonan-2-yl)pyrimidin-5-yl)oxy)-5-fluoro-N-isopropyl-N-(oxetan-3-yl)benzamide]
- IC50 [1]: < 100 nM
